Source: US11912682B2, “Isoindolinone compounds” (Monte Rosa Therapeutics, Inc., priority 2021, dated 2024)

Key:
[1] = target: Full length wild-type cereblon CRBN (Homo sapiens (Human), UniProt Q96SW2); assay: fluorescence polarization (FP) assay, cereblon binding; settings: read-out: rFP IC50
Method in brief: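 Full-length wild-type CRBN (80.0 nM as dispensed) preincubated 30 min at room temperature with compound in HEPES pH 8.0, NaCl, TCEP, 0.05% Tween 20.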

GSPT1 [2] = target: T1, GSPT1 (Homo sapiens (Human), UniProt P15170+Q96SW2); assay: immunofluorescence assay for GSPT1 degradation in CAL-51 cells (Example 4); assay type: cell-based
T1 sequence (P15170 whole entry): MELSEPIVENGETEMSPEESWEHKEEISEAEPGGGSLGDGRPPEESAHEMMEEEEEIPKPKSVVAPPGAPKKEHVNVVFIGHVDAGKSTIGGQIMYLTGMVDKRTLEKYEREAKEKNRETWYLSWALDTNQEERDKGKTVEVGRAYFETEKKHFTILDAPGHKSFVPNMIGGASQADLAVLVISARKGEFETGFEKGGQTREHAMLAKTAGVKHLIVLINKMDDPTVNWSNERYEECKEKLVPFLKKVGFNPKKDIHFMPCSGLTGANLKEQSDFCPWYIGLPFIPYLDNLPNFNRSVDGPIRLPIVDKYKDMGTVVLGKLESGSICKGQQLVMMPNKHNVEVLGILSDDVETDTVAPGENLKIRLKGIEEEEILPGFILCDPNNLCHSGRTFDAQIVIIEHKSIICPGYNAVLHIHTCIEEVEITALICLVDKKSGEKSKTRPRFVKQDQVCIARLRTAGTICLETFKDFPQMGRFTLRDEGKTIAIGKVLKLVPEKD
T1 sequence (Q96SW2 whole entry): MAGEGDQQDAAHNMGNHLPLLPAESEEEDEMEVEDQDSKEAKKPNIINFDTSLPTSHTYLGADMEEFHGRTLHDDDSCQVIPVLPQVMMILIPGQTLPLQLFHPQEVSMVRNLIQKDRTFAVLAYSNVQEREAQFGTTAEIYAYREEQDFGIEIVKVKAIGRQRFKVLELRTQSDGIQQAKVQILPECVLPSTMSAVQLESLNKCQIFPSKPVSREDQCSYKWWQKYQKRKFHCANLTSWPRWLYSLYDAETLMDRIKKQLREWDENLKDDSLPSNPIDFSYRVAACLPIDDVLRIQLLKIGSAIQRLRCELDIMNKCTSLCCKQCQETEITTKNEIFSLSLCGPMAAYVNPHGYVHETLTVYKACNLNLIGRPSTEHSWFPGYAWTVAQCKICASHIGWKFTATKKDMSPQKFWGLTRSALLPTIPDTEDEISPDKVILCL
T1 sequence (Q16531 2-1140 partner): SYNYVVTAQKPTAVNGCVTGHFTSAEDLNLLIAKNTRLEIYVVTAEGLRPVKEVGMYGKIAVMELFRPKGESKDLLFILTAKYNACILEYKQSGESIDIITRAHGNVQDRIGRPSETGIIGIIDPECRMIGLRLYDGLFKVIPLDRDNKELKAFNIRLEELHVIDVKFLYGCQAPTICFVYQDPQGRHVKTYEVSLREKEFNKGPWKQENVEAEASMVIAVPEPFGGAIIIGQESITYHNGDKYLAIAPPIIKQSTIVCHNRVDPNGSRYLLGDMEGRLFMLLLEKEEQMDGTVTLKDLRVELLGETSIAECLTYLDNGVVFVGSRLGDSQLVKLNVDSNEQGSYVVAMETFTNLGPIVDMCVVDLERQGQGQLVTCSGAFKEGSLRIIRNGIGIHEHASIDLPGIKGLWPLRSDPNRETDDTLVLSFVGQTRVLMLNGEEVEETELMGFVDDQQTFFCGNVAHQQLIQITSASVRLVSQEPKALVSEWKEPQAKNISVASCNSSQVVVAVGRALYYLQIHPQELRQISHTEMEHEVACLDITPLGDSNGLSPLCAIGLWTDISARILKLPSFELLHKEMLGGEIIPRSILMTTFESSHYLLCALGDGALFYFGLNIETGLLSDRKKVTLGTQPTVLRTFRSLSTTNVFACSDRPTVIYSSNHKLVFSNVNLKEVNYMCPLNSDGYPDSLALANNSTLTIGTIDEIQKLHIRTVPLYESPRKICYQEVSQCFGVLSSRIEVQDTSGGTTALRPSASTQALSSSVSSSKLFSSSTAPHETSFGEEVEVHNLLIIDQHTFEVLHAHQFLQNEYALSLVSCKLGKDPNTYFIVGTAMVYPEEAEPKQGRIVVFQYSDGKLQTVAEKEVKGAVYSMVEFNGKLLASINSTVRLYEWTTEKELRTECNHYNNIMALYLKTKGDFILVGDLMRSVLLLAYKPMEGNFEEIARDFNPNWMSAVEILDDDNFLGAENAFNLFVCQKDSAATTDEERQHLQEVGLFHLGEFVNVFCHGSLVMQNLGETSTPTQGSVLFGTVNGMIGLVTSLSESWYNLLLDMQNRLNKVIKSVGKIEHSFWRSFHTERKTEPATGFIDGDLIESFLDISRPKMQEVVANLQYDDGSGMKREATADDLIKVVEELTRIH
Method in brief: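 CAL-51 cells on fibronectin-coated plates were treated 6 h with serial dilutions (30 μM to 0.1 nM), then fixed and immunostained for GSPT1 with DAPI and phalloidin counterstains. Per-cell mean GSPT1 intensity from high-content imaging, normalized to controls; DC50 by non-linear regression.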

GSPT1 [3] = target: T1, GSPT1; assay: immunofluorescence assay for GSPT1 degradation in CAL-51 cells (Example 10); assay type: cell-based; settings: CAL-51 cells, 6 h; read-out: IF Class (GSPT1 degradation DC50)
Procedure: The representative compounds were tested in an immunofluorescence assay for their activity to degrade GSPT1. […] Compounds were stored at 10 mM DMSO stocks. […] Cells were subsequently rinsed with PBS and fixed in 10% Formalin solution (50 μl, Sigma HT5011)) for 20 mins at room temperature. […] Following three further PBS washes, 50 μL blocking buffer (1% BSA, Sigma A4503, in PBS) was added for 45 min for signal-to noise reduction. Primary antibody (human GSPT1, Sigma HPA052488) was diluted in blocking buffer (dil.1/300, 35 μL/well) and incubated with the cells overnight at 4° C. […] After three final PBS washes, samples were conserved in 100 μL PBS in the dark, until measurement. Image acquisition was performed on the Operetta High-Content Imager (Perkin-Elmer). […] For the determination of GSPT1 DC50 values, a custom algorithm implemented in the PerkinElmer image analysis software Harmony-Acapella® was developed. After user-defined setting of adjustment parameters, the analysis was run identically without human intervention for all image fields. DAPI staining of the nuclei was used to determine the location of cells using standard nuclei detection modules. Segmentation artifacts were removed by threshold-based filters for area, roundness and intensity. The outline of the cells was determined analogously from the sum of the normalized, smoothed DAPI and Actin channel, starting from each nucleus. […] GSPT1 degradation (DC50) was calculated after normalization to controls and data import in CDD vault Database, using non-linear regression.

[4] = 6 hours, read-out: Activity for GSPT1 degradation, Code (DC50)
[5] = GSPT1 degradation, read-out: DC50 value

Sequence of Full length wild-type cereblon CRBN (Q96SW2 whole entry): as the sequence (Q96SW2 whole entry) above

Compound | IC50 [1] [nM] | DC50 (GSPT1 [2]; [4]) [nM] | DC50 (GSPT1 [2]; [5]) [nM] | DC50 (GSPT1 [3]) [nM]
N#Cc1cc(Cl)cc(NC(=O)OCc2ccc3c(c2)C(=O)N(C2CCC(=O)NC2=O)C3)c1 (stereo not shown) [Compound 111, (2-(2,6-dioxopiperidin-3-yl)-3-oxoisoindolin-5-yl)methyl (3-chloro-5-cyanophenyl)carbamate] | < 500 | 30 to 300 | – | –
Cc1cc(C#N)cc(NC(=O)OCc2ccc3c(c2)C(=O)N(C2CCC(=O)NC2=O)C3)c1 (stereo not shown) [Compound 112, (2-(2,6-dioxopiperidin-3-yl)-3-oxoisoindolin-5-yl)methyl (3-cyano-5-methylphenyl)carbamate] | < 500 | 30 to 300 | – | –
O=C1CCC(N2Cc3ccc(COC(=O)Nc4ccc5c(c4)CC(F)(F)O5)cc3C2=O)C(=O)N1 (stereo not shown) [Compound 113] | < 500 | 30 to 300 | – | –
CC(C)(C)c1cc(NC(=O)OCc2ccc3c(c2)C(=O)N(C2CCC(=O)NC2=O)C3)ccn1 (stereo not shown) [Compound 114] | < 500 | < 30 | – | –
O=C1CCC(N2Cc3ccc(COC(=O)Nc4cc(OC(F)(F)F)ccc4Cl)cc3C2=O)C(=O)N1 (stereo not shown) [Compound 125, (2-(2,6-dioxopiperidin-3-yl)-3-oxoisoindolin-5-yl)methyl(2-chloro-5-(trifluoromethoxy)phenyl)carbamate] | > 1700 | > 300 | – | –
Cc1ccc(NC(=O)OCc2ccc3c(c2)C(=O)N(C2CCC(=O)NC2=O)C3)cc1C (stereo not shown) [Compound 129] | < 500 | 30 to 300 | – | –
O=C1CCC(N2Cc3ccc(COC(=O)Nc4cc(F)c(-c5ccccc5)c(F)c4)cc3C2=O)C(=O)N1 (stereo not shown) [Compound 134, (2-(2,6-dioxopiperidin-3-yl)-3-oxoisoindolin-5-yl)methyl(2,6-difluoro-[1,1′-biphenyl]-4-yl)carbamate] | > 1700 | 30 to 300 | – | –
Cc1cc(NC(=O)OCc2ccc3c(c2)C(=O)N(C2CCC(=O)NC2=O)C3)ccc1-c1ccccc1 (stereo not shown) [Compound 137, (2-(2,6-dioxopiperidin-3-yl)-3-oxoisoindolin-5-yl)methyl(2-methyl-[1,1′-biphenyl]-4-yl)carbamate] | > 1700 | < 30 | ≤ 30 | –
O=C1CCC(N2Cc3ccc(COC(=O)Nc4ccc(OC(F)(F)F)cc4F)cc3C2=O)C(=O)N1 (stereo not shown) [Compound 148, (2-(2,6-dioxopiperidin-3-yl)-3-oxoisoindolin-5-yl)methyl(2-fluoro-4-(trifluoromethoxy)phenyl)carbamate] | > 1700 | > 300 | – | –
O=C1CCC(N2Cc3ccc(COC(=O)Nc4ccnc(-c5ccccc5)c4)cc3C2=O)C(=O)N1 (stereo not shown) [Compound 149] | < 500 | > 300 | – | –
O=C1CCC(N2Cc3ccc(COC(=O)NC4CN(c5ccccc5)C4)cc3C2=O)C(=O)N1 (stereo not shown) [Compound 167] | – | – | – | > 300
O=C1CCC(N2Cc3ccc(COC(=O)NC4CN(Cc5ccccc5)C4)cc3C2=O)C(=O)N1 (stereo not shown) [Compound 168] | – | – | – | > 300
O=C1CCC(N2Cc3ccc(COC(=O)Nc4cccc(OC(F)(F)F)c4F)cc3C2=O)C(=O)N1 (stereo not shown) [Compound 169] | – | – | – | 30 to 300
O=C1CCC(N2Cc3ccc(COC(=O)Nc4cccc5c4OCC5)cc3C2=O)C(=O)N1 (stereo not shown) [Compound 173] | – | – | – | > 300

The next lines start with the values.

IC50 [1] [nM] | DC50 (GSPT1 [2]; [4]) [nM] | DC50 (GSPT1 [2]; [5]) [nM] | DC50 (GSPT1 [3]) [nM] | Compound
> 1700 | 30 to 300 | – | – | Cc1c(F)cc(NC(=O)OCc2ccc3c(c2)C(=O)N(C2CCC(=O)NC2=O)C3)cc1Cl (stereo not shown) [Compound 116]
> 1700 | > 300 | – | – | CC(OC(=O)Nc1cccc(OC(F)(F)F)c1)c1ccc2c(c1)C(=O)N(C1CCC(=O)NC1=O)C2 (stereo not shown) [Compound 121, 1-(2-(2,6-dioxopiperidin-3-yl)-3-oxoisoindolin-5-yl)ethyl(3-(trifluoromethoxy)phenyl)carbamate]
< 500 | 30 to 300 | – | – | Cc1cc(C)c(F)c(NC(=O)OCc2ccc3c(c2)C(=O)N(C2CCC(=O)NC2=O)C3)c1 (stereo not shown) [Compound 122, (2-(2,6-dioxopiperidin-3-yl)-3-oxoisoindolin-5-yl)methyl (2-fluoro-3,5-dimethylphenyl)carbamate]
< 500 | 30 to 300 | – | – | Cc1cc(NC(=O)OCc2ccc3c(c2)C(=O)N(C2CCC(=O)NC2=O)C3)cc(C)c1F (stereo not shown) [Compound 124, (2-(2,6-dioxopiperidin-3-yl)-3-oxoisoindolin-5-yl)methyl (4-fluoro-3,5-dimethylphenyl)carbamate]
< 500 | < 30 | ≤ 30 | – | O=C1CCC(N2Cc3ccc(COC(=O)NC45CC(c6ccccc6)(C4)C5)cc3C2=O)C(=O)N1 (stereo not shown) [Compound 126, (2-(2,6-dioxopiperidin-3-yl)-3-oxoisoindolin-5-yl)methyl (3-phenylbicyclo[1.1.1]pentan-1-yl carbamate]
< 500 | < 30 | ≤ 30 | – | O=C1CCC(N2Cc3ccc(COC(=O)Nc4ccc(-c5ccccn5)cc4F)cc3C2=O)C(=O)N1 (stereo not shown) [Compound 135, (2-(2,6-dioxopiperidin-3-yl)-3-oxoisoindolin-5-yl)methyl (2-fluoro-4-(pyridin-2-yl)phenyl)carbamate]
> 1700 | 30 to 300 | – | – | O=C1CCC(N2Cc3ccc(COC(=O)Nc4ccc(-c5ccccc5)c(F)c4)cc3C2=O)C(=O)N1 (stereo not shown) [Compound 136, (2-(2,6-dioxopiperidin-3-yl)-3-oxoisoindolin-5-yl)methyl (2-fluoro-[1,1′-biphenyl]-4-yl) carbamate]
> 1700 | 30 to 300 | – | – | O=C1CCC(N2Cc3ccc(COC(=O)Nc4ccc(-c5ccccc5)cn4)cc3C2=O)C(=O)N1 (stereo not shown) [Compound 143, (2-(2,6-dioxopiperidin-3-yl)-3-oxoisoindolin-5-yl)methyl (5-phenylpyridin-2-yl)carbamate]
< 500 | < 30 | ≤ 30 | – | CC1(c2ccc(NC(=O)OCc3ccc4c(c3)C(=O)N(C3CCC(=O)NC3=O)C4)cn2)CC1 (stereo not shown) [Compound 152, (2-(2,6-dioxopiperidin-3-yl)-3-oxoisoindolin-5-yl)methyl (6-(1-methylcyclopropyl)pyridin-3-yl)carbamate]
> 1700 | 30 to 300 | – | – | O=C1CCC(N2Cc3ccc(COC(=O)Nc4ccc(OC(F)(F)F)cc4)cc3C2=O)C(=O)N1 (stereo not shown) [Compound 154, (2-(2,6-dioxopiperidin-3-yl)-3-oxoisoindolin-5-yl)methyl (4-(trifluoromethoxy)phenyl)carbamate]
> 1700 | 30 to 300 | – | – | O=C1CCC(N2Cc3ccc(COC(=O)Nc4cc(-c5ccccc5)ccn4)cc3C2=O)C(=O)N1 (stereo not shown) [Compound 155, (2-(2,6-dioxopiperidin-3-yl)-3-oxoisoindolin-5-yl)methyl (4-phenylpyridin-2-yl)carbamate]
< 500 | < 30 | ≤ 30 | – | C[C@H]1CCCN1c1ccc(NC(=O)OCc2ccc3c(c2)C(=O)N(C2CCC(=O)NC2=O)C3)cn1 (stereo partly drawn) [Compound 156, (2-(2,6-dioxopiperidin-3-yl)-3-oxoisoindolin-5-yl)methyl (6-((S)-2-methylpyrrolidin-1-yl)pyridin-3-yl)carbamate]
< 500 | < 30 | ≤ 30 | – | C[C@@H]1CCCN1c1ccc(NC(=O)OCc2ccc3c(c2)C(=O)N(C2CCC(=O)NC2=O)C3)cn1 (stereo partly shown) [Compound 157]
– | – | – | > 300 | O=C1CCC(N2Cc3ccc(COC(=O)Nc4cc(Cl)ccc4F)cc3C2=O)C(=O)N1 (stereo not shown) [Compound 163, (2-(2,6-dioxopiperidin-3-yl)-3-oxoisoindolin-5-yl)methyl (5-chloro-2-fluorophenyl)carbamate]
– | – | – | > 300 | O=C1CCC(N2Cc3ccc(COC(=O)Nc4ccc(C5CCC5)cc4F)cc3C2=O)C(=O)N1 (stereo not shown) [Compound 164, (2-(2,6-dioxopiperidin-3-yl)-3-oxoisoindolin-5-yl)methyl (4-cyclobutyl-2-fluorophenyl)carbamate]
– | – | – | > 300 | Cc1cc(F)c(NC(=O)OCc2ccc3c(c2)C(=O)N(C2CCC(=O)NC2=O)C3)c(F)c1 (stereo not shown) [Compound 166, (2-(2,6-dioxopiperidin-3-yl)-3-oxoisoindolin-5-yl)methyl (2,6-difluoro-4-methylphenyl)carbamate]
– | – | – | 30 to 300 | CC(C)(C)c1cccc(NC(=O)OCc2ccc3c(c2)C(=O)N(C2CCC(=O)NC2=O)C3)n1 (stereo not shown) [Compound 170, (2-(2,6-dioxopiperidin-3-yl)-3-oxoisoindolin-5-yl)methyl (6-(tert-butyl)pyridin-2-yl)carbamate]
– | – | – | < 30 | O=C1CCC(N2Cc3ccc(COC(=O)NC45CC(c6ccccc6F)(C4)C5)cc3C2=O)C(=O)N1 (stereo not shown) [Compound 174, (2-(2,6-dioxopiperidin-3-yl)-3-oxoisoindolin-5-yl)methyl (3-(2-fluorophenyl)bicyclo[1.1.1]pentan-1-yl) carbamate]
